In brackets after ≈: the same amount, converted by molar mass. Where two headings read alike, the source gives them in different places.
Key:
[1] = system: mESC-D3; experiment: Conventional mouse ES-D3 differentiation assay in hanging drop format (petri dish; cardiomyocyte contraction, day 10); type: cell-based; conditions: manual; beating cardiomyocytes at day 10; in brackets the two individual experiments
Method: Separate Petri dishes were used for each concentration of test compound, untreated control, and solvent control. […] The EB suspension was incubated for 2 days. On day five of the assay, a fresh compound dilution series was prepared in media and transferred into 24-well cell culture plates (1 ml/well, Greiner bio-one, Cat. No. 662641). A separate 24-well plate was used for each compound concentration, untreated control, and solvent control (24 wells per condition). One EB was transferred from the Petri dish into each well of the 24-well plate. After further 5 days of incubation (= day 10 of the assay), cardiomyocyte contraction was determined in each well under the light microscope.

[2] = system: NIH/3T3; design: method as in Scholz et al. [1999]; conditions: ZEBET value, 7 d result; ref Scholz et al. [1999]; cited from earlier work
[3] = system: mESC-D3; design: method as in Scholz et al. [1999]; conditions: ZEBET value printed beside hanging drop differentiation result; ref Scholz et al. [1999]; cited from earlier work
[4] = system: mESC-D3; design: method as in Scholz et al. [1999]; conditions: ZEBET value, 7 d result; ref Scholz et al. [1999]; cited from earlier work
[5] = system: mESC-D3; experiment: Automated mESC-D3 differentiation assay in 96-well round-bottom ultra-low attachment plates (cardiomyocyte contraction, day 10); type: cell-based, mouse; conditions: beating cardiomyocytes at day 10, in brackets the two independent runs
Method: The mESC-D3 differentiation assay was automated in 96-well round-bottom ultra-low attachment plates (Costar, Cat. No. 7007) on the lab automation platform Fluent (Tecan). The method was set up for testing up to three different compounds in an automated procedure, resulting in maximal 9 plates that were being processed. A 7-point dilution series of test compounds and control solutions were prepared in PBS or DMSO under the laminar flow, transferred to a 96-well 0.5 ml Masterblock plate, and placed on the Fluent worktable. There the compounds were further diluted in growth media in a 96-well 2 ml Masterblock plate using the FCA. Of the compound solution, 10 μl/well were dispensed into a 96-well round well ultra-low attachment plate. In the meantime, a suspension of mESC-D3 (3.75 × 10^4 cells/ ml) was prepared in growth media and was placed in a trough on the worktable. The cell suspension was transferred into the 96-well round-bottom ultra-low attachment plate (40 μl/well) using the FCA. After 2 days of incubation at 37 °C, 5% CO2, and 95% humidity fresh compound and control solutions were prepared and added to the 96-well U-bottom plate (200 μl/well). On day five of the assay freshly prepared compound and control solutions were dispensed into a 96-well imaging plate (200 μl/well, Greiner bio-one, Cat. No. 655866). Using the MCA, the supernatant was aspirated from the 96-well round-bottom ultra-low attachment plate, the EB at the bottom of the well was aspirated and transferred into the prefilled imaging plate. On day 7, the cell supernatant was partially replaced with a fresh compound solution. Therefore, the media was aspirated using the MCA and the fresh compound solution was dispensed with the FCA. After further 3 days of incubation (= day 10 of the assay) cardiomyocyte contraction was determined in each well under the light microscope. Afterward, cells were stained and analyzed using the Opera High Content Screening System (PerkinElmer).
Toxicity data from the MTT and CellTiter-Glo Assay was normalized against the vehicle control (100% viability) and plotted against the logarithmic compound concentration.

[6] = system: mESC-D3 and NIH/3T3 cells; conditions: for Compound classification (Seiler and Spielmann [2011]): automated mouse EST assay; for Compound classification: manual murine EST assay, prediction model of Seiler and Spielmann 2011
[7] = system: mESC-D3; type: cell-based, mouse; conditions: for ID50 FACS (MHC-positive cells): flow cytometry, day 7
Method: As an alternative to the morphological analysis at day 10, differentiation can be analyzed at day 7 of the assay by flow cytometry using the molecular flow EST (Buesen et al. [2009]). Previously, staining of cardiomyocytes was performed using an unconjugated primary monoclonal antibody directed against the sarcomeric MHC (clone MF20), followed by binding of a secondary biotin-conjugated goat anti-mouse IgG antibody which is then detected with the fluorochrome PE-SA (phycoerythrin-conjugated streptavidin) (Seiler and Spielmann [2011]). […] Of note, these experiments were performed in parallel with the same batch of spontaneously differentiated mESCs.
Embryoid bodies were formed in hanging drops (Petri dish) as already described. On day 5 of the assay, the EBs were transferred into a larger Petri dish and incubated for two more days at 37 °C, 5% CO2, and 95% humidity. Afterward, the EBs were dissociated using the Embryoid Body Dissociation Kit (Miltenyi Biotec, Cat. No. 130-096-348). EBs from two Petri dishes were harvested in one 15 ml tube and washed once with 10 ml PBS. The supernatant was discarded after centrifugation and a pre-warmed enzyme mix was added. The EB/enzyme mix was incubated for 10 min at 37 °C, dissociated for 1 min with a 1000 μl pipette, incubated for 5 min and mechanically dissociated again for 1 min. After the addition of 3 ml PBS, the cell suspension was passed through a 70-μm filter into a new 15-ml tube. The filter was then washed with 3 ml PBS and discarded afterward. The cell suspension was centrifuged for 5 min at 300 rpm. The supernatant was discarded afterward, cells were suspended in PBS and counted. For viability staining, 10^6 cells were suspended in 100 μl staining reagent (LIVE/DEAD™ Fixable Green Dead Stain Kit, Life Technologies, Cat. No. L34969), incubated for 30 min at 4 °C and washed with 1 ml PBS. For fixation, cells were suspended in 100 μl fixation buffer (BioLegend, Cat. No. 420801) and incubated 20 min at room temperature. For the intracellular staining, cells were washed twice with 1 ml permeabilization buffer (BioLegend, Cat. No. 421002) and suspended in 50 μl permeabilization buffer supplemented with 50 μl of pre-diluted (1:5) antibody (mouse IgG2B anti-human Myosin Heavy Chain APC-conjugated, mouse IgG2B APC-conjugated isotype control, R&D Systems, Cat. No. IC4470A). After 1 h incubation at room temperature cells were washed twice with 1 ml permeabilization buffer and suspended in FACS buffer. Within 2–3 h samples were measured on an LSR II flow cytometer (Beckton Dickinson). Data analysis was done using FlowJo software (Version 10.0.8; Tree Star).

SMILES	Differentiation assay in hanging drop (petri dish) ID50 mESC-D3 [1]	IC50 NIH/3T3 (ZEBET) [2] [µg/mL]	ID50 mESC-D3 (ZEBET) [3] [µg/mL]	IC50 mESC-D3 (ZEBET) [4] [µg/mL]	Differentiation assay in round bottom ULA microplate ID50 mESC-D3 [5]	Differentiation assay in round bottom ULA microplate ID50 mESC-D3 ([5]; listed as hydroxyurea) [µg/mL]	Compound classification (Seiler and Spielmann [2011]) [6]	Compound classification [6]	ID50 FACS (MHC-positive cells) [7] [µg/mL]	MHC-positive cells ([7]; treated with 10 μg/ml, untreated 31% (hydroxyurea), 26% (fumonisine B1)) [%]	Differentiation assay in round bottom ULA microplate ID50 mESC-D3 ([5]; listed as saccharin) [µg/mL]	MHC-positive cells ([7]; treated with 1000 μg/ml, untreated 25%) [%]
NC(=O)NO [Hydroxyurea, hydroxyurea]	2.55 (2.56; 2.54) µg/ml	7.2 (≈ 94.7 µM)	1.7 (≈ 22.4 µM)	2.0 (≈ 26.3 µM)	2.69 (2.86; 2.52) μg/ml	2.69	Strong embryotoxicity	strong embryotoxicity	5.65 (≈ 74.3 µM)	4	–	–
O=C1NS(=O)(=O)c2ccccc21 [Saccharin, saccharin]	1000 (> 1000; > 1000) µg/ml	3000 (≈ 16400 µM)	2000 (≈ 10900 µM)	3498 (≈ 19100 µM)	> 1000 (> 1000; > 1000) μg/ml	–	No embryotoxicity	no embryotoxicity	> 1000	–	> 1000	19

— paper PMC8012336, “An automated and high-throughput-screening compatible pluripotent stem cell-based test platform for developmental and reproductive toxicity assessment of small molecule compounds” (Cell Biology and Toxicology, 2020)
